Source: EP4467141A1, “PYRAZOLO-QUINOLINES AS SELECTIVE INHIBITORS OF GENOTOXIC STRESS-INDUCED IKK/NF- KB PATHWAYS FOR CANCER THERAPY” (Max-Delbrück-Centrum für Molekulare Medizin in der …, priority 2023, dated 2024)

Assays:
Experiment in all cases: Kinase panel study
Assay type in all cases: biochemical
Conditions in all cases: read-out: Percentage of inhibition; for inhibition at 1 µM: 1000nM; for inhibition at 10 µM: 10000nM
ABL1 Y253F = target: T1, ABL1 Y253F (Homo sapiens, UniProt P00519, Y253F)
T1 construct: purchased Thermo Fisher Scientific
Outline: (§1)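 ZLyte/Adapta biochemical kinase assays, standard operating procedures; % inhibition at 1 µM or 10 µM test compound; IC50 determined in panel.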

DAPK3 (ZIPK) = target: T2, DAPK3 (ZIPK) (Homo sapiens, UniProt O43293)
T2 construct: purchased Thermo Fisher Scientific
Outline: as §1

[1] = target: T3, EGFR (ErbB1) T790M C797S L858R (Homo sapiens, UniProt P00533, C797S/L858R/T790M)
T3 construct: purchased Thermo Fisher Scientific
Outline: as §1

EPHB2 = target: T4, EPHB2 (Homo sapiens, UniProt P29323)
T4 construct: purchased Thermo Fisher Scientific
T4 sequence (P29323 19-1055): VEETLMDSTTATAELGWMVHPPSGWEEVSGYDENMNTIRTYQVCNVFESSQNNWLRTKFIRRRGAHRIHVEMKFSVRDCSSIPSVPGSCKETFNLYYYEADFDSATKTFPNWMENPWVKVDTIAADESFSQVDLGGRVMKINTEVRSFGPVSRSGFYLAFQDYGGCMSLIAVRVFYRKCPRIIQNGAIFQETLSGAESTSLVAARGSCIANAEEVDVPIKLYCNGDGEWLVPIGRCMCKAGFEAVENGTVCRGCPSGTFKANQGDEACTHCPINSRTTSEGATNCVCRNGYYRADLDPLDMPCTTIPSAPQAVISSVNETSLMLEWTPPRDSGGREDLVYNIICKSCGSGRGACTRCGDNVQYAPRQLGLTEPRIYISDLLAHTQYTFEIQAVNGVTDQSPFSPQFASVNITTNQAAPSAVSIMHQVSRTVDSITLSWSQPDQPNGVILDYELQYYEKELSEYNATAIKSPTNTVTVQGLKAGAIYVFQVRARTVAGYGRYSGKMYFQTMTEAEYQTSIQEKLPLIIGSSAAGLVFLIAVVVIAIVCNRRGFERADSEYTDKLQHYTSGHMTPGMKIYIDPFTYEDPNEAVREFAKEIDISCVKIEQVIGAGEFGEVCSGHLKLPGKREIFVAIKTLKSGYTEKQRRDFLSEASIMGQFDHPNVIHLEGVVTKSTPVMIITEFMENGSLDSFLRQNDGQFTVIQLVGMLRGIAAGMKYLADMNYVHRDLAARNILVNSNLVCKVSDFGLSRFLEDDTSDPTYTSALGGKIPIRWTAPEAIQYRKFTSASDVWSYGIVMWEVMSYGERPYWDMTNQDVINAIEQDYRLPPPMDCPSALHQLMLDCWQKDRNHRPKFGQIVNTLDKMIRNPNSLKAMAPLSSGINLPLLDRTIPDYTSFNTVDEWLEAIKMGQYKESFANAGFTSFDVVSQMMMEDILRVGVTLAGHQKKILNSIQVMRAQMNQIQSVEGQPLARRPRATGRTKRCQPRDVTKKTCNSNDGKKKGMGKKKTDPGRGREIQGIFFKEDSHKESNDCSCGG
Outline: as §1

IKBKE (IKK epsilon) = target: T5, IKBKE (IKK epsilon) (Homo sapiens, UniProt Q14164)
T5 construct: purchased Thermo Fisher Scientific
T5 sequence (Q14164 1-716): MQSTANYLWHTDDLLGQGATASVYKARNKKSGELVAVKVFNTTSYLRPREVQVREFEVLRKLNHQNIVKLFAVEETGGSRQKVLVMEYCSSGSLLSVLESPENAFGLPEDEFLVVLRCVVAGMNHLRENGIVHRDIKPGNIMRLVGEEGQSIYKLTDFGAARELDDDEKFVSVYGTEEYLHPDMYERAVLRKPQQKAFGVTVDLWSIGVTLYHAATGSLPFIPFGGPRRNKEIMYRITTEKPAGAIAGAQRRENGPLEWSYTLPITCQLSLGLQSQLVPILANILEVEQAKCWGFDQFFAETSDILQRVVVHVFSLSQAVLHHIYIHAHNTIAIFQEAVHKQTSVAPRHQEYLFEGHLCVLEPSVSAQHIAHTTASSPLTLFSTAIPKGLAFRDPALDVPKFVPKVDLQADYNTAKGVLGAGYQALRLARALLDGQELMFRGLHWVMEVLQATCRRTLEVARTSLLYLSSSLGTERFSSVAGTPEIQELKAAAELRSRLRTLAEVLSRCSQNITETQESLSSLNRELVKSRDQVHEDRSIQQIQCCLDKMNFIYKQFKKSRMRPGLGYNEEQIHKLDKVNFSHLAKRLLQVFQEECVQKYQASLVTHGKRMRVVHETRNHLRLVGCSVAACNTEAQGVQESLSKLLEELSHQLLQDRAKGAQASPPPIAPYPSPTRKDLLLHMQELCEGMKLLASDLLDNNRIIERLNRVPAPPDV
Outline: as §1

LRRK2 G2019S = target: T6, LRRK2 G2019S (Homo sapiens, UniProt Q5S007, G2019S)
T6 construct: purchased Thermo Fisher Scientific
Outline: as §1

MAPKAPK3 = target: T7, MAPKAPK3 (Homo sapiens, UniProt Q16644)
T7 construct: purchased Thermo Fisher Scientific
Outline: as §1

T3 sequence (P00533 25-1210 T790M/C797S/L858R): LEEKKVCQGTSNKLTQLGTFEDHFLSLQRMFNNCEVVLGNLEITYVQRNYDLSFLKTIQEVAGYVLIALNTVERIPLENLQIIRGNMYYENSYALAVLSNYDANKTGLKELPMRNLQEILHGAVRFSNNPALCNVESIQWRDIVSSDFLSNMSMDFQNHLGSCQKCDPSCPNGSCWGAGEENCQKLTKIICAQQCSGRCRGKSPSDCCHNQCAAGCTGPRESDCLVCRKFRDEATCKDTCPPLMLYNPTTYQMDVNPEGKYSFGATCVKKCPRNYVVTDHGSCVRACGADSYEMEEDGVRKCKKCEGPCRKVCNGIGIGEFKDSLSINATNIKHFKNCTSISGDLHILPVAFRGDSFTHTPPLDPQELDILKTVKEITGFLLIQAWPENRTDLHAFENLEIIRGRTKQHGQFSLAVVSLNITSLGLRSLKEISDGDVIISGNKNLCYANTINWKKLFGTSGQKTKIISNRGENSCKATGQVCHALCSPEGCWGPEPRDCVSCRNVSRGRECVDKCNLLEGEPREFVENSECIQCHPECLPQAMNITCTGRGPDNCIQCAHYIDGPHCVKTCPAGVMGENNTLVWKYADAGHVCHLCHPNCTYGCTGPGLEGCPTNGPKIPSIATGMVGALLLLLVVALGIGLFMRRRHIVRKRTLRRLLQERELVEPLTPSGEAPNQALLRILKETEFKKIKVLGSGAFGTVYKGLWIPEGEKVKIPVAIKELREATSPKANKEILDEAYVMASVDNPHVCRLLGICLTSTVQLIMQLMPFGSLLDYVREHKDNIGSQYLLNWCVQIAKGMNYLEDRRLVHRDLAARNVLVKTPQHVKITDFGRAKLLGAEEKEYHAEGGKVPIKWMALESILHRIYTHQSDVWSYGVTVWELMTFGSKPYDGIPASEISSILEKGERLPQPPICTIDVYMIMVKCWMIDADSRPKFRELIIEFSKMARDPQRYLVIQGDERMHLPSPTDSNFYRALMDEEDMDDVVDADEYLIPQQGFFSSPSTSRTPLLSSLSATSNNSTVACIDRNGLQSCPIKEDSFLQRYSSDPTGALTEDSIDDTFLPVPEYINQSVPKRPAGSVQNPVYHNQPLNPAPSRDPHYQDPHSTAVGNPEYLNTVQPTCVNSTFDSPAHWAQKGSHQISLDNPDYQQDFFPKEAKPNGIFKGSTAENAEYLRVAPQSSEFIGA
T6 sequence (Q5S007 970-2527 G2019S limits assumed): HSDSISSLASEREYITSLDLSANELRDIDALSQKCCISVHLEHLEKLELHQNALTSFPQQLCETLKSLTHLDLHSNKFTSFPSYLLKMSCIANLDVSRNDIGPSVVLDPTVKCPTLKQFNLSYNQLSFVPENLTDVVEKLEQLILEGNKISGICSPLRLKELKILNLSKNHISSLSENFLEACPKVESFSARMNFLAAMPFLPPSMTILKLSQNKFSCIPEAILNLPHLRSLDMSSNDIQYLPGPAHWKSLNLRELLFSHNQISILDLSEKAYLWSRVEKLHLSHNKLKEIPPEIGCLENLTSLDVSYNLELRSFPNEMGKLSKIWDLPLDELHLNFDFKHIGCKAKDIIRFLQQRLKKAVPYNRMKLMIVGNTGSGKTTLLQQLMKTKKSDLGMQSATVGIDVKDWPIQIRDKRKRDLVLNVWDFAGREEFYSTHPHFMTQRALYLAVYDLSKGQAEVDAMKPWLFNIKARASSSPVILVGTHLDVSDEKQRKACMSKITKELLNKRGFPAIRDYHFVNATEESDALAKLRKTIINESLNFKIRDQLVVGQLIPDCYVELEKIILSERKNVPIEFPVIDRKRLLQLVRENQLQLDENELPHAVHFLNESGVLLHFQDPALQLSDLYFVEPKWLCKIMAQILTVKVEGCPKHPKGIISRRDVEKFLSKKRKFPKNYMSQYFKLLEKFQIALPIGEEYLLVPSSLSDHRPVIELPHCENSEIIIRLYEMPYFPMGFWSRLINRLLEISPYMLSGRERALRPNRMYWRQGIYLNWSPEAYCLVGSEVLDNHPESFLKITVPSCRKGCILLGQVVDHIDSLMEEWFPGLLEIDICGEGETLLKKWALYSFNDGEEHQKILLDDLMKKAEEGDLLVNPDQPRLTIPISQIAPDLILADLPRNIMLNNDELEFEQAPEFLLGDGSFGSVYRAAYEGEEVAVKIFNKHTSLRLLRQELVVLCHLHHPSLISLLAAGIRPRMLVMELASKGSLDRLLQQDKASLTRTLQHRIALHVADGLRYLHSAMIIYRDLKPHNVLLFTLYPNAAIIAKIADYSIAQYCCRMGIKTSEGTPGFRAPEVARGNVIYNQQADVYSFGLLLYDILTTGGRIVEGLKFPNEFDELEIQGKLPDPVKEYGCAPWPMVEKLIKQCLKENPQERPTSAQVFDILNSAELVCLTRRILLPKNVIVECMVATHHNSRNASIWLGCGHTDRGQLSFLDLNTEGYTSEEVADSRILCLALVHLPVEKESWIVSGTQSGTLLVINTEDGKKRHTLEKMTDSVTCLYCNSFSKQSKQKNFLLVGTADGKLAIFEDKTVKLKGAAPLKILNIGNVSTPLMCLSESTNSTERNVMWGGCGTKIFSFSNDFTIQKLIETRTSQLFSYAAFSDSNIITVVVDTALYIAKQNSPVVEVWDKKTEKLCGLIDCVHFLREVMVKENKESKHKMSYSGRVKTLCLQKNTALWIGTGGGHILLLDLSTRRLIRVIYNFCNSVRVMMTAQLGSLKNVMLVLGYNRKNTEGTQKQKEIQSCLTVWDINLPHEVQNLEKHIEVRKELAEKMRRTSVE
T2 sequence (O43293 whole entry): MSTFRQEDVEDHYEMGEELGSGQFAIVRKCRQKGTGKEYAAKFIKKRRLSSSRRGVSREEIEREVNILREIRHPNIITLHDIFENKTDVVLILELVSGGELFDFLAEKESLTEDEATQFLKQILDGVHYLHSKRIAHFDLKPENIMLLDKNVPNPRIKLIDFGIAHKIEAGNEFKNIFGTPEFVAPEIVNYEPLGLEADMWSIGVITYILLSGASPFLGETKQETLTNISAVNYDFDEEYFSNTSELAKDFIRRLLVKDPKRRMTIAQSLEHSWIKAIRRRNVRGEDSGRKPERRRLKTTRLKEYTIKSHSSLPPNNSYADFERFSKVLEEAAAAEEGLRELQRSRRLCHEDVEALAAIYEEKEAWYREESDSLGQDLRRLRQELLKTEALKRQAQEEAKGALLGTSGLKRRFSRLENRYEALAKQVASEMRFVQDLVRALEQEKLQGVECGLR
T7 sequence (Q16644 whole entry): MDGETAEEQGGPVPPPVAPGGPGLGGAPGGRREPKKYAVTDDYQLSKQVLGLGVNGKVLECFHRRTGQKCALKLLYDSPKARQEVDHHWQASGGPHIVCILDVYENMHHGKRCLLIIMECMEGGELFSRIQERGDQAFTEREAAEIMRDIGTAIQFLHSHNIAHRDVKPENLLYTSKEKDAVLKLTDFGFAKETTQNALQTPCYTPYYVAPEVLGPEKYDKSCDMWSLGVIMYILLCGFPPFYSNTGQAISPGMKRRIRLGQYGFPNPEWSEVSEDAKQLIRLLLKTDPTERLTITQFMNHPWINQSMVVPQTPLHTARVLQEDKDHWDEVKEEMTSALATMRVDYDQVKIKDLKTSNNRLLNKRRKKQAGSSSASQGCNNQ

With COc1ccc2c(c1OC)c(=O)n1c3ccc(O)cc3c3ccnc2c31 [MW01, 5-Hydroxy-10,11-dimethoxy-9H-benzo[c]indolo[3,2,1-ij][1,5]naphthyridin-9-one] the inhibition at 1 µM (ABL1 Y253F) was 9%, the inhibition at 10 µM (ABL1 Y253F) was 30% and the inhibition at 1 µM (DAPK3 (ZIPK)) was 2%. For the same molecule, the inhibition at 10 µM (DAPK3 (ZIPK)) was 9%, the inhibition at 1 µM [1] was 2% and the inhibition at 10 µM [1] was 12%. For the same molecule, the inhibition at 1 µM (EPHB2) was 10%, the inhibition at 10 µM (EPHB2) was 17% and the inhibition at 1 µM (IKBKE (IKK epsilon)) was 11%. The inhibition at 10 µM (IKBKE (IKK epsilon)) was 17%, the inhibition at 1 µM (LRRK2 G2019S) was 90% and the inhibition at 10 µM (LRRK2 G2019S) was 93%. For the same molecule, the inhibition at 1 µM (MAPKAPK3) was 8% and the inhibition at 10 µM (MAPKAPK3) was 24%.

COc1ccc2cc3c(N)nn(C(=O)c4cccc(N(C)C)c4)c3nc2c1 [MW05, (3-Amino-7-methoxypyrazolo[3,4-b]quinolin-1-yl)-[3-(dimethylamino)phenyl]methanone] showed an inhibition at 1 µM (ABL1 Y253F) of -2%, an inhibition at 10 µM (ABL1 Y253F) of 7% and an inhibition at 1 µM (DAPK3 (ZIPK)) of 2%. For the same molecule, the inhibition at 10 µM (DAPK3 (ZIPK)) was -3%, the inhibition at 1 µM [1] was 1% and the inhibition at 10 µM [1] was 2%. The inhibition at 1 µM (EPHB2) was 6%, the inhibition at 10 µM (EPHB2) was 1% and the inhibition at 1 µM (IKBKE (IKK epsilon)) was 8%. It also gave an inhibition at 10 µM (IKBKE (IKK epsilon)) of 6%, an inhibition at 1 µM (LRRK2 G2019S) of -2% and an inhibition at 10 µM (LRRK2 G2019S) of 16%. It also gave an inhibition at 1 µM (MAPKAPK3) of 10% and an inhibition at 10 µM (MAPKAPK3) of 3%.
